# Experimental data from patent publication EP0332387B1, “Triazole derivatives, their preparation and their use as fungicides” (Sankyo Company Limited, priority 1988, dated 1989).
# Tests used:
# Format in all cases: in vivo
# Rhizoctonia solani [1] = assay: Curative activity against sheath blight of rice plants (Experiment 3); parameters: key: 0 = disease as untreated, 5 = no disease (complete control); details: rice seedlings (variety Nihonbare), sprayed 24 hours after inoculation at 10 ppm (30 ml/3 pots), further 5 days; height of the lesions
# Method: Rice seedlings (variety Nihonbare) at the 4 - 5 leaf stage were inoculated with the fungus, Rhizoctonia solani, by placing 4 - 5 oat grains on which the fungus had previously been cultured around the base of each rice seedling and keeping them in a moist chamber at 25 - 27 °C. After 24 hours, the rice seedlings were sprayed with an aqueous suspension of the test compound at a concentration of 10 ppm (30 ml/3 pots) and they then continued to be kept in the moist chamber for a further 5 days. The disease controlling index was given on the basis of the height of the lesions formed on the rice seedlings.
# (§1) The compounds tested have the formula (1-1), in which Ar represents the group shown at the beginning of each part of the Table and R^1, R^2, X and Y are as defined in the Table.
# (§2) The disease controlling index shown in the foregoing Tables 11 to 19 is indicated by the following codes: • 5--no disease (complete control) • 4--disease rate is less than 10% of the untreated plant • 3--disease rate is 10% - 30% of the untreated plant • 2--disease rate is 30% - 50% of the untreated plant • 1--disease rate is 50% - 70% of the untreated plant • 0--disease rate is almost same as the untreated plant.
# Rhizoctonia solani [2] = assay: Preventive activity against sheath blight of rice plants by submerged application (Experiment 4); details: rice seedlings (variety Nihonbare), applied to the water in the pots, 100 g per 10 ares, inoculated after 7 days, 5 days; height of the lesions
# Source text: Rice seedlings (variety Nihonbare) at the 4 - 5 leaf stage grown in pots were flooded to a depth of 1 cm with water. The test compound was then applied to the water in the pots in an amount corresponding to 100 g per 10 ares. After keeping the seedlings in a greenhouse for 7 days, the water was drained from the pots and the seedlings were inoculated with the fungus, Rhizoctonia solani, by placing 4 - 5 oat grains on which the fungus had previously been cultured around the base of each seedling. The seedlings were then kept in a moist chamber for 5 days at 25 - 27 °C. The disease controlling index was given on the basis of the height of the lesions formed on the rice seedlings.
# Except for Table 14F, the compounds tested have the formula (1-1), in which Ar represents the group shown at the beginning of each part of the Table and R^1, R^2, X and Y are as defined in the Table.
# as §2
# Pyricularia oryzae = details: rice seedlings (variety Sachikaze), sprayed 24 hours after inoculation at 10 ppm (30 ml/3 pots), further 6 days; number of lesions on the upper two leaves
# Sphaerotheca fuliginea = assay: Preventive activity against powdery mildew of cucumber (Experiment 8); details: cucumber seedlings sprayed at 300 ppm, inoculated after 24 hours, evaluated after 7 days in greenhouse; diseased area on third and fourth leaves
# Method: Cucumber seedlings (variety Sagamihanpaku) at the 3 - 4 leaf stage were sprayed with an aqueous suspension of the test compound at a concentration of 300 ppm (30 ml/3 pots). The seedlings were then kept for 24 hours at room temperature, after which they were inoculated with conidida of Sphaerotheca fuliginea. After keeping the seedlings in a greenhouse for 7 days, the disease controlling index was evaluated on the basis of the diseased area on the third and fourth leaves.
# Puccinia recondita = assay: Curative activity against leaf rust of wheat (Experiment 6); details: wheat seedlings (variety Norin No 61), sprayed after inoculation at 3 ppm (30 ml/3 pots), 10 days; diseased area on the first leaf
# Method: Wheat seedlings (variety Norin No 61) at the first leaf stage were inoculated with the fungus, Puccinia recondita, by spraying them with a spore suspension of the fungus. They were then kept in a moist chamber for 24 hours at 20 - 22 °C, after which they were moved to a greenhouse at 15 - 20 °C. […] The seedlings were then continuously kept in the greenhouse for 10 days. The disease controlling index was given on the basis of diseased area on the first leaf.
# Venturia inaequalis = assay: Preventive activity against apple scab (Experiment 9); details: apple seedlings sprayed at 300 ppm, inoculated after 24 hours, 3 days moist chamber then 10 days greenhouse; diseased area on third and fourth leaves
# Method: Apple seedlings at the 3 - 4 leaf stage were sprayed with an aqueous suspension of the test compound at a concentration of 300 ppm (30 ml/3 pots). The seedlings were then kept for 24 hours at room temperature, after which they were inoculated with the fungus, Venturia inaequalis, by spraying a spore suspension of the fungus over the seedlings. After inoculation, the seedlings were kept in a moist chamber for 3 days at 20 - 22 °C and then moved to a greenhouse at 20 - 22°C for 10 days. The disease controlling index was given on the basis of the diseased area on the third and fourth leaves.
# Gibberella Fujikuroi = assay: Activity against bakanae disease of rice plants by seed soaking (Experiment 5); parameters: key: 0 = disease as untreated, 5 = no disease (complete control); details: infected rice seeds (variety Tanginbozu) immersed 3 days in aqueous suspension (concentration not given), 3 weeks; number of diseased seedlings
# Method: Ten grams of rice seeds (variety Tanginbozu), infected with Gibberella Fujikuroi, were immersed in 20 ml of an aqueous suspension of the test compound for 3 days. At the end of this time, the treated seeds were densely sown in soil in pots, and the pots were placed in a greenhouse at 20 - 30 °C for 3 weeks. The disease controlling index was given on the basis of the number of diseased seedlings.
# as §1, §2
# Rhizoctonia solani [3] = assay: Preventive activity against sheath blight of rice plants (Experiment 2); parameters: key: 0 = disease as untreated, 5 = no disease (complete control); details: rice seedlings (variety Nihonbare), sprayed at 100 ppm (30 ml/3 pots) 24 hours before inoculation, 5 days; height of the lesions
# Method: Rice seedlings (variety Nihonbare) at the 4 - 5 leaf stage were sprayed with an aqueous suspension of the test compound at a concentration of 100 ppm (30 ml/3 pots). The seedlings were then kept for 24 hours at room temperature, after which they were inoculated with the fungus, Rhizoctonia solani, by placing 4 - 5 oat grains on which the fungus had previously been cultured around the base of each seedling. The seedlings were then kept in a moist chamber for 5 days at 25 - 27 °C. The disease controlling index was given on the basis of the height of the lesions formed on the rice seedlings.
# Except in Table 12G, the compounds tested have the formula (1-1), in which Ar represents the group shown at the beginning of each part of the Table and R^1, R^2, X and Y are as defined in the Table.
# as §2
# [4] = tested on: Erysiphe graminis f.sp. hordei; assay: Curative activity against powdery mildew of barley (Experiment 7); details: barley seedlings (variety Sekishinriki), sprayed one day after inoculation at 3 ppm (30 ml/3 pots), further 10 days; diseased area on the first leaf
# Method: Barley seedlings (variety […]) at the first leaf stage were inoculated with conidia of Erysiphe graminis f.sp. hordei and kept in a greenhouse at 15 - 20°C. After one day, the seedlings were sprayed with an aqueous suspension of the test compound at a concentration of 3 ppm (30 ml/3 pots), and they continued to be kept in the greenhouse at that temperature for a further 10 days. The disease controlling index was given on the basis of the diseased area on the first leaf.
# Candida albicans = assay: ED50 in mice infected with Candida albicans, oral treatment (Experiment 11); details: 360 h, treated orally, fifteen days after infection
# Method: Groups of mice (each group contained 10 mice) were inoculated with 7 to 9 x 10^6 spores per mouse of Candida albicans. 1, 4, and 24 hours after the inoculation, each mouse was orally administered 20 mg/kg of the test compound each time. The anti-fungal activity was assessed by the survival rate 9 days after infection. The survival rate was recorded as 0% 2 days after infection in an untreated (control) group. […] Following essentially the same procedure as that described in Experiment 10, mice were infected with Candida albicans, and treated orally with various compounds of the invention, as shown in the following Table 21. Fifteen days after infection (or fourteen days in the case of the compounds of Example Nos. 5 and 10), ED50 values were determined and are reported in the following Table 21.
SMILES,disease controlling index (Rhizoctonia solani [1]),disease controlling index (Rhizoctonia solani [2]),disease controlling index (Pyricularia oryzae),Index (disease controlling index) (Sphaerotheca fuliginea),disease controlling index (Puccinia recondita),Index (disease controlling index) (Venturia inaequalis),disease controlling index (Gibberella Fujikuroi),disease controlling index (Rhizoctonia solani [3]),disease controlling index [4],ED50 (Candida albicans) [mg/kg]
"C[C@@H](N=[N+]=[N-])[C@](O)(Cn1cncn1)c1ccc(Cl)cc1Cl (relative stereo) [Example 2, (2R*, 3R*)-3-Azido-2-(2,4-dichlorophenyl)-l-(lH-1,2,4-triazol-1-yl)-2-butanol]",5,5,4 (disease rate is less than 10% of the untreated plant),5,5,5,,,,
"C[C@@H](CCN=[N+]=[N-])[C@](O)(Cn1cncn1)c1ccc(F)cc1F (relative stereo) [Example 81, (2R*, 3S*)-5-Azido-2-(2,4-difluorophenyl)-3-methyl-1-(1H-1,2,4-triazol-1-yl)-2-pentanol]",5,4 (disease rate is less than 10% of the untreated plant),5,,5,,5,5,,
"CC(N=[N+]=[N-])[C@H](C)[C@](O)(Cn1cncn1)c1ccc(F)cc1F (single isomer, unassigned) [83 (C-4 isomer 1), (2R*, 3S*)-4-Azido-2-(2,4-difluorophenyl)-3-methyl-1-(1H-1,2,4-triazol-1-yl)-2-pentanol]",5,5,5,5,5,5,5,5,5,
"CC(N=[N+]=[N-])[C@H](C)[C@](O)(Cn1cncn1)c1ccc(F)cc1F (single isomer, unassigned) [83 (oxalate, C-4 isomer 2), (2R*, 3S*)-4-Azido-2-(2,4-difluorophenyl)-3-methyl-1-(1H-1,2,4-triazol-1-yl)-2-pentanol]",5,4 (disease rate is less than 10% of the untreated plant),5,5,5,5,5,5,5,
C[C@@H](NC(=O)c1ccc(C#N)cc1)[C@](O)(Cn1cncn1)c1ccc(F)cc1F [Example 67],4 (disease rate is less than 10% of the untreated plant),,,5,4 (disease rate is less than 10% of the untreated plant),,,4 (disease rate is less than 10% of the untreated plant),4 (disease rate is less than 10% of the untreated plant),1.25
"C[C@@H](N=[N+]=[N-])[C@](O)(Cn1cncn1)c1ccc(F)cc1F [Example 99, (2R, 3R)-3-Azido-2-(2,4-difluorophenyl)-1-(1H-1,2,4-triazol-1-yl)-2-butanol]",5,4 (disease rate is less than 10% of the untreated plant),5,5,,5,5,,,
"C[C@@H](NC(=O)c1ccc(C(F)(F)F)cc1)[C@](O)(Cn1cncn1)c1ccc(Cl)cc1 [Example 103, (2R, 3R)-2-(4-Chlorophenyl)-1-(1H-1,2,4-triazol-1-yl)-3-[(4-trifluoromethyl)benzoylamino]-2-butanol]",,,,,,,,,,0.48
"CC(=O)N1CCN(c2ccc(OCC3COC(Cn4ccnc4)(c4ccc(Cl)cc4Cl)O3)cc2)CC1 (centres unmarked) [ketoconazole, reference compound]",,,,,,,,,,31.4
